Values of other authors in patent US20240366648A1, “NAD-AUGMENTATION THERAPY FOR PARKINSON'S DISEASE” (Vestlandets Innovasjonsselskap AS (VIS), priority 2021, published 2024).

B1: cinpanemab: a-synuclein antibody drug (antibody, chains of the INN, looked up, V domains shown)
VH: EVQLVESGGGLVEPGGSLRLSCAVSGFDFEKAWMSWVRQAPGQGLQWVARIKSTADGGTTSYAAPVEGRFIISRDDSRNMLYLQMNSLKTEDTAVYYCTSAHWGQGTLVTVSS
VL: SYELTQPPSVSVSPGQTARITCSGEALPMQFAHWYQQRPGKAPVIVVYKDSERPSGVPERFSGSSSGTTATLTITGVQAEDEADYYCQSPDSTNTYEVFGGGTKLTVL

Columns and labels:
PD patients = settings: cited from earlier work
a-synuclein = target: T1, a-synuclein (Homo sapiens, UniProt P37840); settings: in vivo; cited from earlier work
T1 construct: host or cells: PD patients in a clinical trial (endogenous protein)

Molecule	decrease of motor decline compared to tocopherol (PD patients)	clinical trial outcome in PD (a-synuclein)
C#CCN(C)[C@H](C)Cc1ccccc1 [L-Deprenyl, selegiline]	50%	–
B1	–	did not achieve proof-of-concept and missed its primary and secondary endpoints
